Results as given in US4141972A, “Purine nucleoside 5'-phosphate (mono, di or tri) 3'(2')-diphosphates and processes for their preparation” (priority 1974, dated 1979).

Key:
[1] = tested on: nucleotide pyrophosphotransferase, enzymes obtained from the six actinomycetes (Streptomyces adephospholyticus A4668 ATCC 31122, St. aspergilloides ATCC 14808 …); experiment: Inhibitory action of nucleosides, nucleotides, bases and general enzyme inhibitors on nucleotide pyrophosphotransferase; assay type: biochemical
Procedure: (1) Inorganic phosphate determination by a modification of Nakamura's method: The standard reaction mixture contained 0.25 M glycine-NaOH buffer (pH 10.0), 0.2 ml.; 0.05 M MgCl2, 0.05 ml.; 0.05 M ATP, 0.05 ml.; the enzyme solution (to be diluted by buffer if necessary), 0.1 ml.; and distilled water, 0.1 ml. in a final volume of 0.5 ml. After incubation at 37° C. for 10 minutes, the reaction was terminated by adding 0.5 ml. of 0.2 N acetic acid, and chilling on ice. Immediately, 3 ml. of developing reagent (amidol-molybdate) was added and the mixture was allowed to stand for 10 minutes at 37° C. The optical density was measured at 750 nm and the moles of Pi released were calculated using the standard curve for Pi.
The reaction mixture contained 20 mM adenosine-8-3H-triphosphate (2 mCi/m mole), 5 mM MgCl2, 62.5 mM glycine-NaOH buffer (pH 10.0) and 0.1 ml. of enzyme solution to give a total volume of 0.2 ml. The mixture was incubated at 37° C. for 10 minutes and the incubation was terminated by addition of 0.01 ml. of 1 N acetic acid. Twenty microliters of the reaction mixture were spotted on a polyethyleneimine (PEI) cellulose F thin layer sheet (E. Merck AG), dried and developed in 0.75 M KH2 PO4, pH 3.4, for two hours at room temperature. After chromatography the sheets were dried and exposed to ultraviolet light provided by a Manasul UV lamp to localize the pppApp and AMP formed. The spots on the chromatograms corresponding to pppApp and AMP were cut out and placed in a scintillation vial containing 0.5 ml. of 0.1 N HCl. Vials were boiled for 15 minutes to elute nucleotides adsorbed on the PEI-cellulose and radioactivity was measured by 10 ml. of BRAY Solution in a liquid scintillation counter. A unit of enzyme activity is defined as the amount of enzyme forming 1μ mole of pppApp or AMP per minute under the above condition.
Inhibitory actions of 40 substances which are general enzyme inhibitors such as nucleosides, nucleotides and their bases were examined for their effect on the enzymes obtained from the six actinomycetes.

[2] = tested on: L1210 cells; experiment: Effect of nucleotides on the life span of mice inoculated with L1210 cells; assay type: in vivo; settings: for 30 days survivors / MST (mean survival time) / T/C: L1210, mice
Excerpt: The characteristic of the said nucleotide pyrophosphotransferase is that it inhibits the growth of Hela S3, L1210 and L5178Y cells in culture at a relatively low concentration, 5 to 10 units/ml. […] The nucleotide or enzyme is combined with a conventional pharmaceutically acceptable nontoxic carrier for intraperitoneal administration.
Tumor: L1210, Sloan-Kettering line, 10^5 cells/head, i.p.
MST: Mean survival time

[3] = other nucleic acids, concentration not given
[4] = 10 mM each, non-substrate nucleic acids
[5] = 5 mg/kg.day i.p. once daily for 10 days
[6] = 10 mg/kg.day i.p. once daily for 10 days
[7] = 20 mg/kg.day i.p. once daily for 10 days
[8] = BDF1 mice, L1210 i.p., i.p. once daily for 10 days

O=c1[nH]c(=O)c2[nH]cnc2[nH]1 [xanthine]
Inhibition of enzyme activity [1, 3]: not inhibitory

O=c1ccn([C@@H]2O[C@H](CO)[C@@H](O)[C@H]2O)c(=O)[nH]1 [uridine]
Inhibition of enzyme activity [1, 3]: not inhibitory

Nc1nc2c(ncn2[C@@H]2O[C@H](CO)[C@@H](O)[C@H]2O)c(=O)[nH]1 [guanosine]
Inhibition of enzyme activity [1, 4]: marked inhibition

Nc1ncnc2c1ncn2[C@@H]1O[C@H](COP(=O)(O)OP(=O)(O)OP(=O)(O)O)[C@@H](O)[C@H]1O [ATP 2Na]
30 days survivors [2, 5]: 0/5 | MST (mean survival time) [2, 5]: 8.7 days | T/C [2, 5]: 98% | 30 days survivors [2, 6]: 0/5 | MST (mean survival time) [2, 6]: 9.2 days | T/C [2, 6]: 103% | 30 days survivors [2, 7]: 0/5 | MST (mean survival time) [2, 7]: 8.6 days | T/C [2, 7]: 97% | Effect on lifespan of tumor-bearing mice [2, 8]: not effective

NC(=O)c1ccc[n+]([C@@H]2O[C@H](COP(=O)([O-])OP(=O)(O)OC[C@H]3O[C@@H](n4cnc5c(N)ncnc54)[C@H](O)[C@@H]3O)[C@@H](O)[C@H]2O)c1 [NAD]
Inhibition of enzyme activity [1, 3]: not inhibitory

O=c1cc[nH]c(=O)[nH]1 [uracil]
Inhibition of enzyme activity [1, 3]: not inhibitory

O=c1[nH]cnc2nc[nH]c12 [hypoxanthine]
Inhibition of enzyme activity [1, 3]: not inhibitory

Nc1ncnc2c1ncn2[C@@H]1O[C@H](COP(=O)(O)OP(=O)(O)OP(=O)(O)O)[C@@H](OP(=O)(O)OP(=O)(O)O)[C@H]1O [pppApp 7Li, adenosine 5'-triphosphate 3' (2')-diphosphate]
30 days survivors [2, 5]: 1/5 | MST (mean survival time) [2, 5]: 14.0 days | T/C [2, 5]: 157% | 30 days survivors [2, 6]: 1/5 | MST (mean survival time) [2, 6]: 12.5 days | T/C [2, 6]: 140% | 30 days survivors [2, 7]: 2/5 | MST (mean survival time) [2, 7]: 16.8 days | T/C [2, 7]: 189% | Accumulation of abdominal dropsy [2, 8]: distinctly suppressed | Effect on lifespan of tumor-bearing mice [2, 8]: prolonged the lifespan | Toxicity to the mice [2, 8]: without causing toxicity

Nc1nc2c(ncn2[C@H]2C[C@H](O)[C@@H](COP(=O)(O)OP(=O)(O)O)O2)c(=O)[nH]1 [d-GDP]
Inhibition of enzyme activity [1, 4]: marked inhibition

OC[C@H]1O[C@@H](n2cnc3c(O)ncnc32)[C@H](O)[C@@H]1O [inosine]
Inhibition of enzyme activity [1, 3]: not inhibitory

Nc1cc[nH]c(=O)n1 [cytosine]
Inhibition of enzyme activity [1, 3]: not inhibitory

Nc1ncnc2nc[nH]c12 [adenine]
Inhibition of enzyme activity [1, 3]: not inhibitory

Nc1ccn([C@@H]2O[C@H](COP(=O)(O)O)[C@@H](O)[C@H]2O)c(=O)n1 [CMP]
Inhibition of enzyme activity [1, 3]: not inhibitory

Nc1ccn([C@@H]2O[C@H](CO)[C@@H](O)[C@H]2O)c(=O)n1 [cytidine]
Inhibition of enzyme activity [1, 3]: not inhibitory

Nc1nc2c(ncn2[C@H]2C[C@H](O)[C@@H](COP(=O)(O)OP(=O)(O)OP(=O)(O)O)O2)c(=O)[nH]1 [d-GTP]
Inhibition of enzyme activity [1, 4]: marked inhibition

Nc1ncnc2c1ncn2[C@@H]1O[C@H](CO)[C@@H](O)[C@H]1O [adenosine]
Inhibition of enzyme activity [1, 3]: not inhibitory

Nc1nc2nc[nH]c2c(=O)[nH]1 [guanine]
Inhibition of enzyme activity [1, 4]: marked inhibition
